What was measured:
HL-60 cells = assay: HL-60 cell differentiation (NBT reduction); format: cell-based; settings: concentration leading to 50% of maximal differentiation achieved with 100-1000 nM calcitriol, 3 days, read-out: ED50 (the source's name)
Description: HL-60 Cell Differentiation
The induction of differentiation of HL-60 cells was assayed by measuring their oxidative burst potential via the reduction of nitrobluetetrazolium (NBT).
HL-60 cells (30,000 cells/90 μl of RPMI/supplemented medium) were seeded into flat-bottomed microtiter wells. Immediately after seeding, 10 μl of test compounds diluted in supplemented RPMI medium were added to the wells at the same time to yield final concentrations between 10^−11 and 10^−6 M (starting from stock solutions of 10^−2 M in ethanol stored at −20° C. and protected from light).

HaCaT cell line = assay: Inhibition of keratinocyte proliferation (3H-thymidine uptake); format: cell-based, human; settings: 3H-thymidine incorporation after 6 days of culture in presence of the test compound
[1] = system: MCF-7 breast carcinoma cells; assay: Antiproliferative activity in MCF-7 breast carcinoma cells (MTT); format: cell-based; settings: inhibition of cell growth, day 3 to 7 post drug addition, Reed and Muench formula
[2] = system: T47-D breast carcinoma cells; assay: Antiproliferative activity in T47-D breast carcinoma cells (MTT); format: cell-based; settings: inhibition of cell growth, day 3 to 7 post drug addition, Reed and Muench formula

Compound | EC50 (HL-60 cells) | IC50 [1] | also measured
C=C1C(=CC=C2CCCC3(C)C(C(C)CC#CC(C)(C)O)=CCC23)CC(O)CC1O (stereo not drawn) [1,25-Dihydroxy-16-ene-23-yne-20-epi-cholecalciferol] | 15 nM | – | IC50 (HaCaT cell line): 93 nM
C=C1C(=CC=C2CCCC3(C)C(C(C)CC#CC(O)(C(F)(F)F)C(F)(F)F)=CCC23)CC(O)CC1F (stereo not drawn) [1α-Fluoro-25-hydroxy-16-ene-23-yne-26,27-hexafluoro-20-epicholecalciferol] | – | 11 nM | –
C=C1/C(=C\C=C2/CCC[C@]3(C)C([C@@H](C)CC#CC(O)(CC)CC)=CC[C@@H]23)C[C@@H](O)C[C@@H]1O [1,25-Dihydroxy-16-ene-23-yne-26,27-bishomo-20-epi-chole-calciferol] | – | 11 nM | –
C=C1C(=CC=C2CCCC3(C)C(C(C)C/C=C\C(O)(C(F)(F)F)C(F)(F)F)=CCC23)CC(O)CC1O (stereo not drawn) [1,25-Dihydroxy-16,23Z-diene-26,27-hexafluoro-20-epi-cholecalciferol] | 2.3 nM | – | –
C=C1/C(=C\C=C2/CCC[C@]3(C)C([C@@H](C)CC#CC(O)(C(F)(F)F)C(F)(F)F)=CC[C@@H]23)C[C@@H](O)C[C@@H]1O [1,25-Dihydroxy-16-ene-23-yne-26,27-hexafluoro-20-epi-cholecalciferol] | 2 nM | 0.95 nM | IC50 [2]: 6.7 nM; IC50 (HaCaT cell line): 50 nM
C=C1C(=CC=C2CCCC3(C)C(C(C)CCCC(C)(C)O)=CCC23)CC(O)CC1O (stereo not drawn) [1,25-Dihydroxy-16-ene-20-epi-cholecalciferol] | 2.5 nM | – | IC50 (HaCaT cell line): 4 nM
C=C1C(=CC=C2CCCC3(C)C(C(C)C/C=C\C(O)(C(F)(F)F)C(F)(F)F)=CCC23)CC(O)CC1F (stereo not drawn) [1α-Fluoro-25-hydroxy-16,23Z-diene-26,27-hexafluoro-20-epi-cholecalciferol] | 20 nM | – | –
C=C1/C(=C\C=C2/CCC[C@]3(C)C([C@@H](C)C/C=C/C(O)(CC)CC)=CC[C@@H]23)C[C@@H](O)C[C@@H]1F [1α-Fluoro-25-hydroxy-16-23E-diene-26,27-bishomo-20-epi-cholecalciferol] | – | 30 nM | –
CCC(O)(C#CCC(C)C1=CCC2C(=CC=C3CC(O)CC(O)C3)CCCC12C)CC (stereo not drawn) [1,25-Dihydroxy-16-ene-23-yne-26,27-bishomo-19-nor-20-epi-cholecalciferol] | – | 12 nM | –
C=C1/C(=C\C=C2/CCC[C@]3(C)C([C@@H](C)C/C=C/C(O)(C(F)(F)F)C(F)(F)F)=CC[C@@H]23)C[C@@H](O)C[C@@H]1F [1α-Fluoro-25-hydroxy-16,23E-diene-26,27-hexafluoro-20-epi-cholecalciferol] | – | 9 nM | –
1,25-Dihydroxy-16,23Z-diene-26,27-hexafluoro-20-epi-19-nor-cholecalciferol | 4.5 nM | – | –
C=C1/C(=C\C=C2/CCC[C@]3(C)[C@@H]([C@H](C)CCCC(C)(C)O)CC[C@@H]23)C[C@@H](O)C[C@@H]1O [1,25-Dihydroxy-cholecalciferol, reference compound] | – | – | IC50 (HaCaT cell line; Homo sapiens, HaCaT): 55 nM
